Legend:
CDC25B = biological target: T1, CDC25B (Homo sapiens, UniProt P30305); assay: In vitro inhibition of CDC25B using the fluorogenic substrate 3-OMFP (CDC25B WT, Ex. C5); assay type: biochemical; conditions: 3-OMFP substrate, 1 hour room temperature; read-out: CDC25B WT (Ex. C5): pIC50 values (converted)
T1 sequence (P30305 1-580): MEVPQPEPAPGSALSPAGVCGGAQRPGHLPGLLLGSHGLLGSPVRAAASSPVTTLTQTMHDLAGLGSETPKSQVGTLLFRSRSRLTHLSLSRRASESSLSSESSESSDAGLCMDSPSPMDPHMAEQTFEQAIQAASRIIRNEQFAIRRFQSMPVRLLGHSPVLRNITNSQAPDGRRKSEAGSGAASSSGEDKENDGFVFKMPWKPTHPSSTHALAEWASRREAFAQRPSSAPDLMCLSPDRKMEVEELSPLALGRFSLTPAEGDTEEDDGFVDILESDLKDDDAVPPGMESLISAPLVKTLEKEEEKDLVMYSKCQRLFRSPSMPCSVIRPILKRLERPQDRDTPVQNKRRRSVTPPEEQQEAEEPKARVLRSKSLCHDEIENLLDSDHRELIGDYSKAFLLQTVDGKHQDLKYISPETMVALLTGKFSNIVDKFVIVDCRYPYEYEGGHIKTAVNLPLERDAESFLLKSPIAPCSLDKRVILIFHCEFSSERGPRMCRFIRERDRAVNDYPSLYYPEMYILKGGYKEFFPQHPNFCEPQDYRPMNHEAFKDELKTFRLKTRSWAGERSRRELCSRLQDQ
Procedure: In Vitro Inhibition of CDC25B using the Fluorogenic Substrate 3-OMFP
CDC25B phosphatase activity is assessed using the fluorogenic substrate 3-O-methyl-flurorescein-phosphate (3-OMFP). The phosphatase-reaction is performed for 1 hour at room temperature in a black microtiter plate in a volume of 50 μl. The reaction mixture contains 4 μg/mlCDC25B, 15 μM (3-OMFP), 15 mM Tris, 50 mM NaCl, 1 mM DTT, 1 mM Na2EDTA at pH 8.0 and 0.1% DMSO solution at 10^−5 M and the hits are tested in the same conditions in a full dose/response from 10^−5, 3.10^−6, 10^−6 and 3.10^−7 M. The enzymatic activity is determined by measuring the fluorescent signal at 485 nm (ex.) and 538 (em.).

AKT3 [1] = biological target: T2, AKT3 (Homo sapiens, UniProt Q9Y243); assay: Cellular inhibition of AKT3 using an ELISA (AKT cel, Ex. C6); assay type: cell-based; set-up: endogenous in cells; host or cells: MDA-MB 231; conditions: MDA-MB 231 cells, phosphorylated MAPK ELISA, 30 minutes with compound; read-out: AKT cel (Ex. C6): pIC50 values (converted)
Procedure: Cellular Inhibition of AKT3 using an ELISA
The human breast adenocarcinoma cell line (MDA-MB 231) was used in an phosphospecific antibody cell ELISA (PACE) to assess the inhibitory effect of the compounds on AKT3 mediated phosphorylation of mitogen-activated protein kinase (MAPK). In the experiments the MDA-MB 231 cells were serum starved for 24 hours (5% CO2; 37° C.). Subsequently, the cells are incubated at room temperature for 2 hours with 20 μM (in serum free medium) of the phosphatidylinositol 3-kinase inhibitor Ly294002 (Alexis, San Diego, Calif.) prior to the incubation for 30 minutes with the compounds at a final concentration ranging from 1 nM to 3 μM. After fixation (with 4.5% formaldehyde) for 20 minutes and washing with PBS (0.1M) the cells were successively incubated with for 5 minutes with 0.1% Triton X-100 in PBS, for 20 minutes with 0.6% H2O2 and 1 hour with a 2% BSA solution as blocking buffer. […] The OD (490–655 nm) reflected the amount of phosphorylated MAPK and the pIC50 of the compounds was based on their effect with respect to blanco (0.1% DMSO) or an internal reference compound treatment.

AKT3 [2] = biological target: T2, AKT3; assay: In vitro inhibition of AKT3 using a filter assay (AKT3 pep., Ex. C3); assay type: biochemical; conditions: histone H2B substrate, filter assay, 25° C. 3 hrs; read-out: AKT3 pep. (Ex. C3): pIC50 values (converted)
Procedure: In Vitro Inhibition of AKT3 using a Filter Assay
In the present AKT3 filter assay, a kinase substrate consisting of a fragment of histone H2B, is incubated with the aforementioned protein in the presence of (^33P) radiolabeled ATP. The (^33P)phosporylated substrate binds to a phosphocellulose cation exchange filter, that can easily be removed from the incubation mixture and counted using a microplate scintillation counter.
AKT3 filter assays were performed at 25° C. for 3 hrs in the presence of 25 mM Hepes, pH 7.0, containing 15 mM MgCl2, 1 mM DTT Each assay was performed in a 100 μl reaction volume containing 111 nM AKT3 (diluted in 25 mM Hepes, pH 7.0, containing 15 mM MgCl2, 1 mM DTT) and the 2.5 μM Histone H2B and 2 nM ATP-P^32. The reaction was terminated by addition of 100 μl 75 mM H3PO4, 90 μl of the assay mixture was filtered through Phosphocellulose cation exchange paper. After five times washing with […] H3PO4, the filterpaper was counting in a microtiterplate scintillation counter.

A2780 cell = assay: Cytotox/survival of A2780 cell after 3 days; assay type: cell-based; conditions: Homo sapiens, 72 h; A2780 ovarian carcinoma cell line, 3 days; read-out: Cytotox/survival of A2780 cell after 3 days - pIC50 values (converted)
Procedure: In an alternative assay, the growth inhibitory effect of the compounds was tested on the ovarian carcinoma cell line A2780 using art known cytotoxicity assays such as LIVE/DEAD (Molecular Probes) or MTT.

cdk4 = cdk4 (Homo sapiens, UniProt P11802); assay: In vitro inhibition of cdk4 using a scintillant proximity assay (CDK4 SPA, Ex. C1); assay type: biochemical; conditions: GST-pRb substrate, 33P-ATP, room temperature 30 minutes; read-out: CDK4 SPA (Ex. C1): pIC50 values (converted)
Procedure: In Vitro Inhibition of cdk4 using a Scintillant Proximity Assay
The scintillant proximity assay (SPA) is in general described in U.S. Pat. No. 4,568,649 (Amersham Pharmacia Biotech). In the present cdk4 SPA kinase reaction assay, a kinase substrate consisting of a fragment of the restinoblastoma protein (pRb) tagged with […] (GST), is incubated with the aforementioned protein in the presence of (^33P) radiolabeled ATP. (^33P) phosporylation of the substrate is subsequently measured as light energy emitted using glutathione-coated SPA beads (Amersham Pharmacia Biotech) by trapping and quantifying the binding of the GST tagged and radiolabeled restinoblastoma protein.
The CDK4 SPA kinase reaction is performed at room temperature for 30 minutes in a 96-well microtiter plate. For each of the tested compounds a full dose response —10^−5M to 3.10^−9M—has been performed. Flavopiridol was used as reference compound. The 100 μl reaction volume contains 50 mM Hepes, 10 mM NaF, 10 mM MgCl2, 1 mM Na3VO4 pH 7.5, 1.5 μg CDK4-cell lysate/well, 0.2 μM unlabeled ATP, 1.7 μg/well GST-pRb, 1.7 nM AT^33P and 1 μl of a DMSO solution. The reaction is stopped by diluting the reaction mixture ½ with 0.1 mM Na2EDTA, 0.1 mM non-labeled ATP, 0.05% Triton-X-100 and 10 mg/ml glutathion coated beads in PBS. The microtiterplates are centrifuges at 900 rpm for 10 minutes and the amount of phosphorylated (^33P) pRb is determined by counting (1 min/well) in a microtiterplate scintillation counter.

T2 sequence (Q9Y243 whole entry): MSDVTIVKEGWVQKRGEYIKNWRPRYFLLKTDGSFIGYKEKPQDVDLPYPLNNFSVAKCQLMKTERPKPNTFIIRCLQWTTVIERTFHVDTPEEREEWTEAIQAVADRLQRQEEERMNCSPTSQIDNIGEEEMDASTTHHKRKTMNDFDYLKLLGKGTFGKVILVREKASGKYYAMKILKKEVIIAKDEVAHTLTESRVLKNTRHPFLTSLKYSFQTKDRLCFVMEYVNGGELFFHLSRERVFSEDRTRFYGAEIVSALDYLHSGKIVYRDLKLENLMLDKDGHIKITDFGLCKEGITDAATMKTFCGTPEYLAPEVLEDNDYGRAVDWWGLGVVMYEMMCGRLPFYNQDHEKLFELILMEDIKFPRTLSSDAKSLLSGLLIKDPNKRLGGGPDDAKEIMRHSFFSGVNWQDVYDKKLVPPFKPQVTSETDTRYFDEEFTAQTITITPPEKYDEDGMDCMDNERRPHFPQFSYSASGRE
Sequence of cdk4 (P11802 whole entry): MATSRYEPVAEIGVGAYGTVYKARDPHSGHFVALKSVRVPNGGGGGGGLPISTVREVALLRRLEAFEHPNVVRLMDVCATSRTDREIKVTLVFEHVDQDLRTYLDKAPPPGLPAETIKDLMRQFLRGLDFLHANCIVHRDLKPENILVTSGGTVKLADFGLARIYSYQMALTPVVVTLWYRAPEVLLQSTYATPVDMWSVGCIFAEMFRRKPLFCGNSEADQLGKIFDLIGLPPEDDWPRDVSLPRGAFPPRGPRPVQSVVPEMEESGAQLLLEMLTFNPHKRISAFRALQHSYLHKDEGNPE
Sequence of cdk4 (P24385 whole entry partner): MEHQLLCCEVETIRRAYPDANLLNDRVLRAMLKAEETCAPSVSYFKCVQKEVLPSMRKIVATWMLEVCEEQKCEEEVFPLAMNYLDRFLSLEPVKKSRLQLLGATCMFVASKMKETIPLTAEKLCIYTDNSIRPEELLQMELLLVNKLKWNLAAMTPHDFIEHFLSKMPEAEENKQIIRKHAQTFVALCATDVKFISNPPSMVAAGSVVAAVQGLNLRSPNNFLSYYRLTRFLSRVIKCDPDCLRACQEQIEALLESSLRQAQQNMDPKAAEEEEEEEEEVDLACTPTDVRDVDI

Cn1c(=O)nc2n(C3CCCC3)nc(-c3ccc(-c4ccc(CN5CCOCC5)cc4)o3)nc-2c1=O [Compound 94]
IC50 (CDC25B): 11.2 nM
melting point: 255 °C
IC50 (AKT3 [1]): 63.8 nM
IC50 (AKT3 [2]): 57.3 nM
IC50 (A2780 cell): 53 nM

Cn1c(=O)nc2n(C3CCNCC3)nc(-c3ccc(-c4cccc(Cl)c4)o3)nc-2c1=O [Compound 96]
IC50 (CDC25B): 9.18 nM
melting point: > 250 °C
IC50 (AKT3 [1]): 3.41 nM
IC50 (AKT3 [2]): 62.1 nM
IC50 (A2780 cell): 10 nM

Cn1c(=O)nc2n(C3CCCC3)nc(-c3ccc(-c4cccc(CN5CCOCC5)c4)o3)nc-2c1=O [Compound 98]
IC50 (CDC25B): 15.1 nM
melting point: 155 °C
IC50 (AKT3 [1]): 111 nM
IC50 (AKT3 [2]): 107 nM
IC50 (A2780 cell): 107 nM

Cn1c(=O)nc2n(C3CCCC3)nc(-c3ccc(-c4ccc(CN5CCC(O)CC5)cc4)o3)nc-2c1=O [Compound 103]
IC50 (CDC25B): 16 nM
melting point: > 250 °C
IC50 (AKT3 [1]): 65.5 nM
IC50 (AKT3 [2]): 85.5 nM
IC50 (A2780 cell): 60.8 nM

Cn1c(=O)nc2n(C3CCCC3)nc(-c3ccc(-c4ccc(CN5CCNCC5)cc4)o3)nc-2c1=O [Compound 105]
IC50 (CDC25B): 16.6 nM
melting point: > 276.5 °C
IC50 (AKT3 [1]): 98.2 nM
IC50 (AKT3 [2]): 115 nM
IC50 (A2780 cell): 54.5 nM

Cn1c(=O)nc2n(C3CCCC3)nc(-c3ccc(-c4ccc(CN5CCN(CCO)CC5)cc4)o3)nc-2c1=O [Compound 106]
IC50 (CDC25B): 15.6 nM
melting point: 175 °C
IC50 (AKT3 [1]): 102 nM
IC50 (AKT3 [2]): 84.3 nM
IC50 (A2780 cell): 70.3 nM

CN(CCO)Cc1ccc(-c2ccc(-c3nc4c(=O)n(C)c(=O)nc-4n(C4CCCC4)n3)o2)cc1 [Compound 107]
IC50 (CDC25B): 16 nM
melting point: > 250 °C
IC50 (AKT3 [1]): 95.7 nM
IC50 (AKT3 [2]): 39.5 nM
IC50 (A2780 cell): 60.8 nM

Cn1c(=O)nc2n(C3CCCC3)nc(-c3ccc(-c4ccc(CN5CCN(S(N)(=O)=O)CC5)cc4)o3)nc-2c1=O [Compound 112]
IC50 (CDC25B): 19.8 nM
melting point: > 250 °C
IC50 (cdk4): 117 nM
IC50 (AKT3 [1]): 202 nM
IC50 (AKT3 [2]): 63.7 nM
IC50 (A2780 cell): 142 nM

Cn1c(=O)nc2n(C3CCCC3)nc(-c3ccc(-c4ccc(CNCCO)cc4)o3)nc-2c1=O [Compound 113]
IC50 (CDC25B): 14.2 nM
melting point: 240 °C
IC50 (AKT3 [1]): 34.8 nM
IC50 (AKT3 [2]): 32.5 nM
IC50 (A2780 cell): 45.1 nM

Cn1c(=O)nc2n(C3CCN(S(N)(=O)=O)CC3)nc(-c3ccc(-c4cccc(Cl)c4)o3)nc-2c1=O [Compound 114]
IC50 (CDC25B): 15.2 nM
melting point: > 250 °C
IC50 (AKT3 [1]): 187 nM
IC50 (AKT3 [2]): 45.2 nM
IC50 (A2780 cell): 110 nM

CONCc1ccc(-c2ccc(-c3nc4c(=O)n(C)c(=O)nc-4n(C4CCCC4)n3)o2)cc1 [Compound 115]
IC50 (CDC25B): 13.2 nM
melting point: 140 °C
IC50 (AKT3 [1]): 74.8 nM
IC50 (AKT3 [2]): 48.1 nM
IC50 (A2780 cell): 46.9 nM
